Data reported in patent US20040235012A1, “Method of detecting antibiotic resistance in microorganisms” (priority 2003, published 2004).

What was measured:
[1] = test system: low-level resistant strains (MRSA); conditions: cited from earlier work
S. aureus strains = test: E-Test MIC of oxacillin; assay type: cell-based; conditions: Staphylococcus aureus

Cc1onc(-c2ccccc2)c1C(=O)N[C@@H]1C(=O)N2[C@@H]1SC(C)(C)[C@@H]2C(=O)O [OX, oxacillin]
oxacillin MIC of low-level resistant strains, at or just above the susceptible breakpoint [1]: 4 to 8 µg/mL
MIC (S. aureus strains; strain 31 (mecA −, PBP2 −)): 0.25 µg/mL
MIC (S. aureus strains; strain 34 (mecA +, PBP2 +)): 16 µg/mL
MIC (S. aureus strains; strain 2325 (mecA −, PBP2 −)): 0.19 µg/mL
MIC (S. aureus strains; strain 3421 (mecA +)): > 4 µg/mL
MIC (S. aureus strains; strain 3424 (mecA −, PBP2 −)): 1.5 µg/mL
MIC (S. aureus strains; strain 3425 (mecA −, PBP2 −)): 0.38 µg/mL
MIC (S. aureus strains; strain 5594 (mecA +, PBP2 +)): 0.38 µg/mL
MIC (S. aureus strains; strain 5595 (mecA +, PBP2 +)): 0.5 µg/mL
MIC (S. aureus strains; strain 5596 (mecA +, PBP2 +)): 0.5 µg/mL
MIC (S. aureus strains; strain 5597 (mecA +, PBP2 +)): 32 µg/mL
MIC (S. aureus strains; strain 5598 (mecA +, PBP2 +)): 32 µg/mL
MIC (S. aureus strains; strain 5599 (mecA +, PBP2 +)): 16 µg/mL
MIC (S. aureus strains; strain T775 (mecA +, PBP2 +)): 8 µg/mL
MIC (S. aureus strains; strain T2109 (mecA +, PBP2 +)): 32 µg/mL
MIC (S. aureus strains; strain T2110 (mecA +, PBP2 +)): 8 µg/mL
MIC (S. aureus strains; strain T2130 (mecA +, PBP2 +)): 32 µg/mL
MIC (S. aureus strains; strain T4031 (mecA +, PBP2 +)): 6 µg/mL
MIC (S. aureus strains; strain T4033 (mecA +, PBP2 +)): 1.5 µg/mL
MIC (S. aureus strains; strain T4035 (mecA +, PBP2 +)): 8 µg/mL
